# Reference: US8546320B2, “Hsp9O-targeted anti-cancer chimeric peptide” (Kyoto University, priority 2008, dated 2013)
# Where two headings read alike, the source gives them in different places. Where a SMILES comes first, the peptide text is derived from it.
# Experiments:
# LNCap = assay type: cell-based, human
# [1] = biological target: T1, interaction between Hsp90 and the Hop's TPR2A domain (Homo sapiens, UniProt P07900); experiment: BIACORE competition: Hsp90 pre-mixed with peptide, added to immobilized TPR2A; assay type: binding; conditions: for Binding of Hsp90 (%): to immobilized TPR2A
# T1 construct: histidine tag; made in house; host or cells: Hsp90: E. coli BL21 (pDEST17-Hsp90)
# Text: It was examined whether the TPR peptide designed could compete specifically with the interaction between Hsp90, which is essential for the accurate folding of some carcinogenic protein including survivin in cancer cells, and the Hop's TPR2A domain.
# T47D = assay type: cell-based, human; conditions: Breast cancer T47D; read-out: Anti-tumor activity, IC50 (μM) ± SD
# Procedure: (§1) A total of 3×10^3 cells were inoculated per well on a 96 well plate and cultured in a medium containing 10% FBS for 24 hours, and incubated with 100 μl of a peptide having a gradual increase in concentration at 37° C. for 48 to 72 hours. The survival rate of the cells was measured by using WST-8 solution (Cell Count Reagent SF; Nacalai Tesque, Inc.).
# MRC-5 = assay type: cell-based, human; conditions: Normal cell MRC5; read-out: Anti-tumor activity, IC50 (μM) ± SD
# Procedure: as §1
# Caki-1 [2] = assay type: cell-based, human
# Caki-1 [3] = assay type: cell-based, human; conditions: Caki-1, 68 μM
# Procedure: The TPR peptide or the TPR scramble peptide was mixed with a commercially available transfection reagent (Profect-P2 or, Lipofectamine LTX) and the mixture was left to incubate at room temperature for 20 minutes, to form liposome before the complex was added to cancer cells (Caki-1 (kidney cancer cells)); the survival rate of the cells was then measured by using WST-8 solution (Cell Count Reagent SF; Nacalai Tesque, Inc.) and the results were compared with those such as in the case of the TPR scramble peptide or the liposome alone.
# HEK293 = experiment: cells; assay type: cell-based, human; conditions: Normal cell HEK; read-out: Anti-tumor activity, IC50 (μM) ± SD
# Procedure: as §1
# (§2) A total of 3×10^3 cells per well were inoculated onto a 96 well plate, and incubated in a medium containing 10% FBS with 100 μl of a peptide diluted stepwise at 37° C. for 48 to 72 hours. The survival rate of the cells was measured by using WST-8 solution (Cell Count Reagent SF; Nacalai Tesque, Inc.).
# U937 [4] = experiment: cells; assay type: cell-based, human
# Procedure: as §2
# BXPC-3 = assay type: cell-based, human
# U937 [5] = experiment: Penetration experiment, confocal microscope, U937; assay type: cell-based, human; conditions: U937, TAMRA-labeled peptide 10 μM, 1 hour
# Procedure: TPR-TAMRA (TAMRA labeled body) or Antp-TPR-TAMRA (TAMRA labeled body) was added to 1×10^6 peripheral blood mononuclear cells (PBMCs), which were prepared from U937 cells, a mouse leukemia cell strain EL4 or mouse peripheral blood, at a final concentration of 10 μM, and the mixture was cultured for 1 hour. The peptide incorporated in the cell or influx of the medium into the cell after peptide penetration was observed under a confocal microscope (Olympus FV1000 (Olympus)), using a medium containing calcein.
# TPR-TAMRA (TAMRA labeled body) or Antp-TPR-TAMRA (TAMRA labeled body) was added to 1×10^6 U937 cells to a final concentration of 10 μM; the mixture was cultured for one hour; and then the behavior of the peptide incorporated into the cell or the influx of the medium into the cell after peptide penetration was observed under a confocal microscope (Olympus FV1000 (Olympus)), using a calcein-containing medium.
# [6] = system: Human pancreatic cancer cells (Bxpc 3); experiment: Anti-tumor effect in cancer-bearing animal models, local administration; assay type: in vivo; conditions: site of administration and behavior observed
# Procedure: Human pancreatic cancer cells (Bxpc 3) (5.0×10^6) were suspended in 150 μl of phosphate-buffered physiological saline (PBS) and transplanted subcutaneously into nude mice (BALB/c Slc-nu/nu). After 5 days, 150 μl of the Antp-TPR peptide suspended in PBS at a concentration of 1 mg/kg to 5 mg/kg was administered to the solid cancer every two days for a total of nine times, and the tumor contraction effect was examined. The tumor diameter was measured with calipers and the tumor volume (mm^3) was calculated according to the formula: length (mm)×minor diameter (mm)^2×0.5.
# A549 = assay type: cell-based; conditions: 24 h
# OE19 = assay type: cell-based; conditions: 24 h
# Procedure: as §1, §2
# leukemia cell strains = assay type: cell-based, human
# Procedure: as §2
# MDA-MB-231 = assay type: cell-based; conditions: 24 h
# cancer cells = experiment: Cell viability assay, summary statements on cancer cells; assay type: cell-based; conditions: 24 h
# K562 = experiment: cells; assay type: cell-based, human
# Procedure: as §2
# THP-1 = experiment: cells; assay type: cell-based, human
# Procedure: as §2
# HL-60 = experiment: cells; assay type: cell-based, human
# Procedure: as §2
# BT-20 = assay type: cell-based, human; conditions: 24 h
# Procedure: as §1, §2
compound,measurement,setting,value
CC[C@H](C)[C@H](NC(=O)[C@H](CCCNC(=N)N)NC(=O)[C@H](C)NC(=O)[C@H](Cc1ccc(O)cc1)NC(=O)[C@H](C)NC(=O)[C@@H](N)CCCCN)C(=O)NCC(=O)N[C@@H](CC(N)=O)C(=O)N[C@@H](CO)C(=O)N[C@@H](Cc1ccc(O)cc1)C(=O)N[C@@H](Cc1ccccc1)C(=O)N[C@@H](CCCCN)C(=O)O [TPR],IC50,"LNCap; Prostate cancer LNcap, read-out: Anti-tumor activity, IC50 (μM) ± SD",> 352 µM
same,inhibition of the interaction between Hsp90 and TPR2A,[1]; increasing peptide concentration,exerts an influence on the interaction between Hsp90 and TPR2A
same,Binding of Hsp90 (%),[1]; peptide 1.411 μM,88.19%
same,Binding of Hsp90 (%),[1]; peptide 14.11 μM,84.60%
same,Binding of Hsp90 (%),[1]; peptide 141.1 μM,72.26%
same,Binding of Hsp90 (%),[1]; peptide 282.2 μM,29.75%
same,Binding of Hsp90 (%),[1]; peptide 705.5 μM,0%
same,IC50,T47D,> 352 µM
same,IC50,MRC-5,> 352 µM
same,IC50,"Caki-1 [2]; Kidney cancer Caki-1, read-out: Anti-tumor activity, IC50 (μM) ± SD",> 352 µM
same,killing effect after introduction with transfection reagent,Caki-1 [3],observed when the TPR peptide was introduced
same,IC50,HEK293,> 352 µM
same,Cell Survival Rate (%),U937 [4],92.79%
same,Anti-cancer activity (% relative to wild-type peptide),"U937 [4]; U937, wild-type peptide = 100%",9.39%
same,Decrease in cell survival rate (% relative to wild-type peptide),"U937 [4]; U937, wild-type peptide = 100%",25.04%
same,IC50,"BXPC-3; Pancreatic cancer Bxpc3, read-out: Anti-tumor activity, IC50 (μM) ± SD",> 352 µM
same,intracellular penetration,U937 [5],did not penetrate into the cell
CC[C@H](C)[C@H](NC(=O)[C@H](CCCNC(=N)N)NC(=O)[C@H](C)NC(=O)[C@H](Cc1ccc(O)cc1)NC(=O)[C@H](C)NC(=O)[C@H](CCCCN)NC(=O)[C@H](CCCCN)NC(=O)[C@H](CCCCN)NC(=O)[C@H](Cc1c[nH]c2ccccc12)NC(=O)[C@H](CCCCN)NC(=O)[C@H](CCSC)NC(=O)[C@H](CCCNC(=N)N)NC(=O)[C@H](CCCNC(=N)N)NC(=O)[C@H](CC(N)=O)NC(=O)[C@H](CCC(N)=O)NC(=O)[C@H](Cc1ccccc1)NC(=O)[C@H](Cc1c[nH]c2ccccc12)NC(=O)[C@@H](NC(=O)[C@H](CCCCN)NC(=O)[C@@H](NC(=O)[C@H](CCC(N)=O)NC(=O)[C@@H](N)CCCNC(=N)N)[C@@H](C)CC)[C@@H](C)CC)C(=O)NCC(=O)N[C@@H](CC(N)=O)C(=O)N[C@@H](CO)C(=O)N[C@@H](Cc1ccc(O)cc1)C(=O)N[C@@H](Cc1ccccc1)C(=O)N[C@@H](CCCCN)C(=O)O [Antp-TPR] (H-RQIKIWFQNRRMKWKKKAYARIGNSYFK-OH; N-terminus and C-terminus assumed),toxicity to the mice,[6],little toxicity to the mice
same,IC50,LNCap; 24 h,49.1 ± 3 µM
same,IC50,A549,52.9 ± 2.5 µM
same,IC50,Caki-1 [2]; 24 h,43.3 ± 3 µM
same,IC50,OE19,29.9 ± 3.4 µM
same,IC50,leukemia cell strains,20 to 60 µM
same,IC50,MDA-MB-231,56.9 ± 12.3 µM
same,IC50,cancer cells,20 to 60 µM
same,IC50,K562,54.2 µM
same,Cell Survival Rate (%),U937 [4],23.24%
same,IC50,U937 [4],25.2 µM
same,IC50,THP-1,24.7 µM
same,IC50,HL-60,46.4 µM
same,IC50,BXPC-3; 24 h,39.8 ± 2.2 µM
same,IC50,BT-20,32.8 ± 5.5 µM
